ChEMBL document CHEMBL1201862, “PubChem BioAssay data set” (2004)
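Cultured in 96-well plates, cells were exposed to test compound for 48 hours across five concentrations. GI50 is the concentration that inhibits growth by half.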 Activity calls are given as the source filed them. No stated cut-off is given here; in the data, active = GI50 up to about 1.1 µM and inactive = higher.

Key:
Assay in all cases: NCI anticancer screen, dose series, 48 h
CAKI-1 = tested on: CAKI-1
OVCAR-8 = tested on: OVCAR-8
SNB-19 = tested on: SNB-19
HOP-92 = tested on: HOP-92
MOLT-4 = tested on: MOLT-4
SF-268 = tested on: SF-268
Hs-578T = tested on: Hs-578T
HCT-15 = tested on: HCT-15
KM12 = tested on: KM12
SW-620 = tested on: SW-620
OVCAR-5 = tested on: OVCAR-5
K562 = tested on: K562
HL-60 = tested on: HL-60
MDA-N = tested on: MDA-N
NCI-H226 = tested on: NCI-H226
COLO 205 = tested on: COLO 205
M14 = tested on: M14
MDA-MB-231 = tested on: MDA-MB-231
CCRF-CEM = tested on: CCRF-CEM

| Structure (SMILES) | GI50 (CAKI-1) | GI50 (OVCAR-8) | GI50 (SNB-19) | GI50 (HOP-92) | GI50 (MOLT-4) | GI50 (SF-268) | GI50 (Hs-578T) | GI50 (HCT-15) | GI50 (KM12) | GI50 (SW-620) | GI50 (OVCAR-5) | GI50 (K562) | GI50 (HL-60) | GI50 (MDA-N) | GI50 (NCI-H226) | GI50 (COLO 205) | GI50 (M14) | GI50 (MDA-MB-231) | GI50 (CCRF-CEM) |
| --- | --- | --- | --- | --- | --- | --- | --- | --- | --- | --- | --- | --- | --- | --- | --- | --- | --- | --- | --- |
| CN(Cc1cc(Cl)cc(Cl)c1O)Cc1c(O)ccc2ccccc12 | 18.3 µM (inactive) | 19.5 µM (inactive) | 19.8 µM (inactive) | 20.1 µM (inactive) | 20.9 µM (inactive) | 13.6 µM (inactive) | 19.1 µM (inactive) | 17.6 µM | 19.9 µM (inactive) | 31.7 µM (inactive) | 23.1 µM (inactive) | 26 µM (inactive) | 25.4 µM (inactive) | 24.9 µM (inactive) | 20.6 µM (inactive) | 16.9 µM (inactive) | 20.2 µM (inactive) | 16.9 µM (inactive) |  |
| c1ccc2c(c1)nnn2CN1CCOCC1 | 75.7 µM (inactive) | 36.3 µM (inactive) | > 100 µM (inactive) | 45.8 µM (inactive) | 35.6 µM (inactive) | 63.8 µM (inactive) | 19.2 µM (inactive) | > 100 µM | > 100 µM (inactive) | 28.3 µM (inactive) | > 100 µM (inactive) | 45 µM (inactive) | 29.2 µM (inactive) | 71.6 µM (inactive) | > 100 µM (inactive) |  | > 100 µM (inactive) | > 100 µM (inactive) |  |
| CCOC(=O)CCC(NC(=O)Cc1ccc(Nc2nc3ccccc3nc2-c2cccs2)cc1)C(=O)OCC (stereo not drawn) | > 100 µM (inactive) |  | 24.7 µM (inactive) |  | > 100 µM (inactive) | 24 µM (inactive) | 25.1 µM (inactive) | > 100 µM | > 100 µM (inactive) | > 100 µM (inactive) | > 100 µM (inactive) | > 100 µM (inactive) | > 100 µM (inactive) | > 100 µM (inactive) | > 100 µM (inactive) | > 100 µM (inactive) | > 100 µM (inactive) | > 100 µM (inactive) | > 100 µM (inactive) |
| CC1OC(OC2C(CO)OC(O[C@H]3CC[C@@]4(C)C(=CC[C@H]5[C@@H]6C[C@@H]7O[C@](O)(CC[C@H](CO)COC8OC(CO)C(O)C(O)C8O)[C@@H](C)[C@@H]7[C@@]6(C)CC[C@@H]54)C3)C(OC3OC(C)C(O)C(O)C3O)C2O)C(O)C(O)C1O (stereo partly drawn) | > 100 µM (inactive) | > 100 µM (inactive) | > 100 µM (inactive) | > 100 µM (inactive) | > 100 µM (inactive) | > 100 µM (inactive) | > 100 µM (inactive) | 54 µM | > 100 µM (inactive) | > 100 µM (inactive) | > 100 µM (inactive) | > 100 µM (inactive) |  | > 100 µM (inactive) |  | > 100 µM (inactive) | > 100 µM (inactive) | > 100 µM (inactive) | > 100 µM (inactive) |
| CC1(C)CC(=O)C2=C(C1)NC(=S)C(C#N)C2c1ccccc1 (stereo not drawn) | > 100 µM (inactive) | > 100 µM (inactive) | > 100 µM (inactive) | > 100 µM (inactive) |  | > 100 µM (inactive) | > 100 µM (inactive) | > 100 µM |  | > 100 µM (inactive) | > 100 µM (inactive) | 75.9 µM (inactive) | > 100 µM (inactive) | > 100 µM (inactive) | > 100 µM (inactive) | > 100 µM (inactive) | > 100 µM (inactive) | > 100 µM (inactive) | > 100 µM (inactive) |
| COc1cc(/C=C2\N=C(c3ccccc3)N(/N=C/c3cc4cc(C)ccc4nc3Cl)C2=O)cc(OC)c1OC | 61.7 µM (inactive) | 35.1 µM (inactive) | 64.7 µM (inactive) | 54.6 µM (inactive) | 20.6 µM (inactive) | 35.6 µM (inactive) | 29.4 µM (inactive) | 32.4 µM | 31.8 µM (inactive) | 41.2 µM (inactive) | > 100 µM (inactive) | 35 µM (inactive) | 10.5 µM (inactive) | 21 µM (inactive) |  | 24.5 µM (inactive) | 39.4 µM (inactive) | 23.1 µM (inactive) |  |
| O=C(CSC1=NCCN1)Nc1ccccc1 | 73.8 µM (inactive) | 29.4 µM (inactive) | 69.3 µM (inactive) | 26.8 µM (inactive) | 52.1 µM (inactive) | 33.3 µM (inactive) | 28.1 µM (inactive) | 29.2 µM | 48 µM (inactive) | 25.8 µM (inactive) | 29.3 µM (inactive) | 40.6 µM (inactive) |  | 17.7 µM (inactive) |  |  | 32.9 µM (inactive) | 20.6 µM (inactive) | 67.9 µM (inactive) |
| CCOC(=O)c1cc2nc3ccccc3c(=O)n2c2ccccc12 | > 10 µM (inactive) | > 10 µM (inactive) | > 10 µM (inactive) | > 10 µM (inactive) |  | > 10 µM (inactive) | > 10 µM (inactive) | > 10 µM | > 10 µM (inactive) | > 10 µM (inactive) | > 10 µM (inactive) | > 10 µM (inactive) | > 10 µM (inactive) | > 10 µM (inactive) | > 10 µM (inactive) | > 10 µM (inactive) | > 10 µM (inactive) | > 10 µM (inactive) | > 10 µM (inactive) |
| NC(CCC(=O)O)(CCC(=O)O)CCC(=O)O | > 100 µM (inactive) | > 100 µM (inactive) | > 100 µM (inactive) | > 100 µM (inactive) | > 100 µM (inactive) | > 100 µM (inactive) | > 100 µM (inactive) | > 100 µM | > 100 µM (inactive) | > 100 µM (inactive) | > 100 µM (inactive) | > 100 µM (inactive) |  | > 100 µM (inactive) | > 100 µM (inactive) | > 100 µM (inactive) | > 100 µM (inactive) | > 100 µM (inactive) | > 100 µM (inactive) |
| C#CCOC(=O)C(N)C(C)O (stereo not drawn) | > 100 µM (inactive) | > 100 µM (inactive) |  | > 100 µM (inactive) | > 100 µM (inactive) | > 100 µM (inactive) | > 100 µM (inactive) |  | > 100 µM (inactive) | > 100 µM (inactive) | > 100 µM (inactive) | > 100 µM (inactive) | > 100 µM (inactive) | > 100 µM (inactive) | > 100 µM (inactive) | > 100 µM (inactive) | > 100 µM (inactive) | > 100 µM (inactive) | > 100 µM (inactive) |
| CSC(CC(=O)O)C(=O)O (stereo not drawn) | > 100 µM (inactive) | > 100 µM (inactive) | > 100 µM (inactive) | > 100 µM (inactive) | > 100 µM (inactive) | > 100 µM (inactive) | > 100 µM (inactive) | > 100 µM | > 100 µM (inactive) | > 100 µM (inactive) | > 100 µM (inactive) |  | > 100 µM (inactive) | > 100 µM (inactive) | > 100 µM (inactive) | > 100 µM (inactive) | > 100 µM (inactive) | > 100 µM (inactive) | > 100 µM (inactive) |
| COc1cc2c(cc1OC)CC(N=[N+]=[N-])c1cc(OC)c(OC)cc1/C=C\2 (stereo not drawn) | 21 µM (inactive) | 18.4 µM (inactive) | 34 µM (inactive) | 12.9 µM (inactive) | 41 µM (inactive) | 51.8 µM (inactive) | 24 µM (inactive) | 40.1 µM | 30.2 µM (inactive) | 83.6 µM (inactive) | > 100 µM (inactive) | 27.2 µM (inactive) | 10 µM (inactive) | 5.75 µM (inactive) | 3.18 µM (inactive) | 37.4 µM (inactive) | 24.2 µM (inactive) | 30.8 µM (inactive) |  |
| CC(C)(C)C(=O)C(N)C(=O)C(C)(C)C | > 100 µM (inactive) | > 100 µM (inactive) | > 100 µM (inactive) | > 100 µM (inactive) | 9.57 µM (inactive) | > 100 µM (inactive) | > 100 µM (inactive) | > 100 µM | > 100 µM (inactive) | > 100 µM (inactive) | > 100 µM (inactive) | > 100 µM (inactive) | > 100 µM (inactive) | > 100 µM (inactive) |  | > 100 µM (inactive) | > 100 µM (inactive) | > 100 µM (inactive) | > 100 µM (inactive) |
| Nc1cc(N)c(/N=N/c2cccc3c(S(=O)(=O)O)cccc23)cc1/N=N/c1cc([N+](=O)[O-])ccc1O | 23.6 µM (inactive) | 23.4 µM (inactive) | 48.9 µM (inactive) | 35.6 µM (inactive) | 20.3 µM (inactive) | 6.62 µM (inactive) | 36.8 µM (inactive) | 22.1 µM | 33.2 µM (inactive) | 28.8 µM (inactive) | 23.3 µM (inactive) | 38.7 µM (inactive) |  | 46.9 µM (inactive) |  | 38.5 µM (inactive) | 26.1 µM (inactive) | 14.6 µM (inactive) |  |
| CC(=O)O[C@H]1C(=O)[C@@]2(C)[C@H]([C@H](OC(=O)c3ccccc3)[C@]3(O)C[C@H](OC(=O)[C@H](O)[C@@H](NC(=O)c4ccco4)c4ccccc4)C(C)=C1C3(C)C)[C@]1(OC(C)=O)CO[C@@H]1C[C@@H]2O | 0.278 µM (active) | < 0.00125 µM (active) | 0.00134 µM (active) |  | 0.00286 µM (active) | 0.00162 µM (active) | < 0.00125 µM (active) | 0.249 µM | < 0.00125 µM (active) | < 0.00125 µM (active) | < 0.00125 µM (active) | < 0.00125 µM (active) | < 0.00125 µM (active) | < 0.00125 µM (active) | 0.00126 µM (active) | < 0.00125 µM (active) | < 0.00125 µM (active) | 0.013 µM (active) | < 0.00125 µM (active) |
| O=C(O)c1ccccn1 [2-PICOLINIC ACID] | > 100 µM (inactive) | > 100 µM (inactive) | > 100 µM (inactive) | > 100 µM (inactive) | > 100 µM (inactive) | > 100 µM (inactive) | > 100 µM (inactive) | > 100 µM | > 100 µM (inactive) | > 100 µM (inactive) | > 100 µM (inactive) | > 100 µM (inactive) |  | > 100 µM (inactive) | > 100 µM (inactive) | > 100 µM (inactive) | > 100 µM (inactive) | > 100 µM (inactive) | > 100 µM (inactive) |
